Data from US20100184851A1, “INHIBITION OF CELL PROLIFERATION” (priority 2008, published 2010).
Where a name gives a salt, the structure may show the parent alone. Read-outs that look alike come from different tables or passages of the source. One block for each molecule: values may come before it.

Key:
Rb:Raf-1 binding = molecular target: T1, Rb:Raf-1 binding (Homo sapiens, UniProt P06400); assay: GST-Rb/GST-Raf-1 ELISA, inhibition of Rb:Raf-1 binding
T1 construct: a glutathione S-transferase (GST) Raf-1 (1-149aa) overnight at 4° C; made in house
T1 sequence (P06400 1-928): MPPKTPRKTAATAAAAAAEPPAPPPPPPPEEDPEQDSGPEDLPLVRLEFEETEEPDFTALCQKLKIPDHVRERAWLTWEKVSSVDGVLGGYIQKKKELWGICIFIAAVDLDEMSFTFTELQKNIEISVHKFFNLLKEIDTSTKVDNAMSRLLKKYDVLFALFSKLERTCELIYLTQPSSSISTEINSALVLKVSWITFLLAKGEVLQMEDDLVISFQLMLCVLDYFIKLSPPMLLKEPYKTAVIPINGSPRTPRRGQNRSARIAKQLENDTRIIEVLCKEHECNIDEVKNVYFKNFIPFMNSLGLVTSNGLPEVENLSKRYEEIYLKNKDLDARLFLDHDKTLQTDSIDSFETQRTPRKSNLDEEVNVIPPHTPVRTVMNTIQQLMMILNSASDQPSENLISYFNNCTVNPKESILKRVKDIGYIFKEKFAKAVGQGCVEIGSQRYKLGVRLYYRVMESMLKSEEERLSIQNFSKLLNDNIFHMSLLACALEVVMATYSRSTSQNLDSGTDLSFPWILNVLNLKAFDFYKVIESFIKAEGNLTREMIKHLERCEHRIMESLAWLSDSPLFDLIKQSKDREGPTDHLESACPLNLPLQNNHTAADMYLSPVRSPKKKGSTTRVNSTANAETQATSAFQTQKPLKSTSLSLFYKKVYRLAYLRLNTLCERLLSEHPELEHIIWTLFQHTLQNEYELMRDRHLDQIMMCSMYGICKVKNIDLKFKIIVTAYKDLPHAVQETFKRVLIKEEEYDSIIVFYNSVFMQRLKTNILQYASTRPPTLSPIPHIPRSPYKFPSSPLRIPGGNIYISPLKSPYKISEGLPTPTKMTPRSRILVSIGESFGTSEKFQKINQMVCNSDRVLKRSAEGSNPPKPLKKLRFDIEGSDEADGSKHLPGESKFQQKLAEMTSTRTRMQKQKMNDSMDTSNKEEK
Procedure: Cell culture and transfection. The human promyelocytic leukemia cell line U937 was cultured in RPMI (Mediatech, Hernden, Va.) containing 10% fetal bovine serum (FBS; Mediatech). U2-OS, Saos-2, MCF7, PANC1 and MDA-MB-231 cell lines were cultured in Dulbecco modified Eagle Medium (DMEM; Mediatech) containing 10% FBS. A549 cells and A549 shRNA Rb cell lines were maintained in Ham F-12K supplemented with 10% FBS. ShRNA cells lines were maintained in media containing 0.5 μg/mL puromycin. H1650, PC-9 and Aspc1 cell line were cultured in RPMI (Gibco/Invitrogen, Carlsbad, Calif.) containing 10% FBS. PANC1 and CAPAN2 pancreatic cell lines and the A375 Melanoma cell line was grown in DMEM supplemented with 10% FBS. Human aortic endothelial cells (HAECs, Clonetics, San Diego, Calif.) were cultured in endothelial growth medium, supplemented with 5% FBS, according to the manufacturer's instructions. U251MG and U87MG glioma cell lines were maintained in DMEM supplemented with non-essential amino acids, […] β-mercaptoethanol, and 10% FBS. ShRNA cell lines were made by stably transfecting A549 cells with two different shRNA constructs that specifically target Rb obtained from a library. The adenovirus (Ad) constructs Ad-green fluorescent protein (GFP) and Ad-E2F1 were obtained from W. D. Cress. Ad-cyclin D was provided by I. Cozar-Castellano. In vitro library screening assays. Enzyme Linked ImmunoSorbent Assay (ELISA) 96-well plates were coated with 1 μg/mL of a glutathione S-transferase (GST) Raf-1 (1-149aa) overnight at 4° C. […] GST-Rb +/− compounds were then added to the plate and incubated for 90 minutes (min) at 37° C. The amount of Rb bound to Raf-1 was detected by Rb polyclonal antibody (Santa Cruz Biotechnology, Santa Cruz, Calif.) 1:1000 incubated for 60 min at 37° C. Donkey-anti-rabbit-IgG-HRP (1:10,000) was added to the plate and incubated at 37° C. for 60 minutes. The color was developed with orthophenylenediamine (Sigma, St. Louis, Mo.) and the reaction was terminated with 3 molar (M) H2SO4. Absorbance was read at 490 nanometers (nm). To determine disruption of Rb to E2F1, Phb, or HDAC1 the above protocol was used with the exception of coating GST Rb on the ELISA plate and adding the drugs in the presence or absence of GST E2F1, Phb, or HDAC1. E2F1 monoclonal antibody (1:2000) was used to detect the amount of Rb bound to E2F1. Prohibition monoclonal antibody was used at 1:1000 to detect the amount of Rb bound to Prohibition. For disruption of MEK-Raf-1 binding ELISAs, Raf-1 1 microgram/milliliter (μg/mL) was coated on the plate and GST-MEK (20 μg/mL) was incubated +/− the compounds for 30 minutes at room temperature. Mek1 polyclonal antibody was used at 1:1000 to detect the binding of Raf-1 to Mek1. The IC50 concentrations for the Rb:Raf-1 inhibitors were determined by plotting with Origin 7.5 software (Origin, Northampton, Mass.). In vitro binding assays. Glutathione S-transferase (GST) fusion of Rb, Raf-1, E2F1, and MEK1 have been previously described (Dasgupta P, Sun J, Wang S, et al. Mol Cell Biol 2004; 24(21):9527-9541). First, 200 micrograms (pig) of U937 asynchronous lysates were pre-incubated with 10 μM of the indicated drugs or 1 μM of the Raf-1 peptide for 30 minutes at 4° C. Next, 200 μg of the U937 lysates were incubated with glutathione beads carrying an equal amount of the GST fusion proteins in 200 μl of protein binding buffer (20 mM Tris [pH 7.5], 50 mM KCL, 0.5 mM EDTA, 1 mM dithiothreitol, 0.5% NP-40, 3 mg of bovine serum albumin/mL) at 4° C. for 2 h. (Wang S, Ghosh R, Chellappan S. Mol Cell Biol 1998; 18(12):7487-7498). Matrigel Assays. Matrigel (Collaborative Biomedical Products) was used to promote the differentiation of HAECs into capillary tube-like structures (Dasgupta P, Sun J, Wang S, et al. Mol Cell Biol 2004; 24(21):9527-9541). A total of 100 μl of thawed Matrigel was added to 96-well tissue culture plates, followed by incubation at 37° C. for 60 minutes to allow polymerization. […]

[1] = test system: A549 cells lacking Raf-1 (sh-13B); assay: BrdU incorporation, A549 cells lacking Raf-1; assay type: cell-based, human; conditions: 20 μM
Procedure: A549 cells lacking Raf-1 (sh-13B) were generated by stably transfecting a shRNA to Raf-1. Control cells were generated by stably transfecting A549 cells with a control shRNA. The cells were incubated in the presence or absence of compounds 3a, 10b and 10c (20 μM) and S-phase entry was assessed by measuring BrdU incorporation. Relative to controls incubated in the absence of compound, proliferation of the cells with control shRNA (having Raf-1) was inhibited by each of the compounds. In contrast, proliferation of the cells lacking Raf-1 (the cells transfected with Raf-inhibitory shRNA) was not inhibited by the compound. This experiment provides evidence that inhibition of cell proliferation by compounds of the invention is mediated by Raf-1 […].

[2] = read-out: inhibition of the Rb:Raf-1 interaction
[3] = class symbols, 10 μM, read-out: % Inhibition at 10 or 20 μM
[4] = class symbol **, 20 μM, read-out: Inhibition at 10 μM or 20 μM
[5] = at 20 μM, read-out: Inhibition at 10 μM or 20 μM
[6] = first value of cell, concentration not printed (head: 10 μM), read-out: Inhibition at 10 μM or 20 μM

Structure (SMILES): N=C(N)SCc1ccc(Cl)cc1Cl [Compound 1, reference compound]
inhibition at 20 µM (Rb:Raf-1 binding; [2]): 100%

Structure (SMILES): N=C(N)SCc1ccc(Cl)c2ccccc12 [Compound 2, reference compound]
inhibition at 20 µM (Rb:Raf-1 binding; [2]): 95%

Structure (SMILES): Cl.N=C(N)SCc1ccc(Cl)cc1Cl [Compound 3a, (2,4-Dichlorophenyl)methyl Isothiourea Hydrochloride]
proliferation (S-phase entry, BrdU incorporation) [1]: not inhibited

inhibition at 10 µM (Rb:Raf-1 binding; [3]): 25 to 50%
Structure (SMILES): N=C(N)SCc1ccc(Cl)cc1[N+](=O)[O-] [Compound 3u, (4-Chloro-2-nitrophenyl)methyl Isothiourea Hydrochloride]

inhibition at 10 µM (Rb:Raf-1 binding; [3]): 50 to 100%
Structure (SMILES): N=C(N)SCc1ccc(F)cc1Cl [Compound 3v, 2-Chloro-4-fluorophenyl)methyl isothiourea Hydrochloride]

inhibition at 10 µM (Rb:Raf-1 binding; [3]): 50 to 100%
Structure (SMILES): N=C(N)SCc1ccc(F)cc1F [Compound 3w, (2,4-Difluorophenyl)methyl isothiourea Hydrochloride]

melting point: 154 to 156 °C
inhibition at 20 µM (Rb:Raf-1 binding; [4]): 50 to 100%
Structure (SMILES): Cl.N=C(N)NC(=N)SCc1ccc(F)cc1Cl [Compound 10a, (2-Chloro-4-fluorophenyl)methyl Amidinoisothiourea Hydrochloride]

melting point: 144 to 146 °C
inhibition at 20 µM (Rb:Raf-1 binding; [4]): 50 to 100%
Structure (SMILES): Cl.N=C(N)NC(=N)SCc1ccc(F)cc1F [Compound 10b, (2,4-Difluorophenyl)methyl Amidinoisothiourea Hydrochloride]
proliferation (S-phase entry, BrdU incorporation) [1]: not inhibited

melting point: 139 to 142 °C
inhibition at 20 µM (Rb:Raf-1 binding; [4]): 50 to 100%
Structure (SMILES): Cl.N=C(N)NC(=N)SCc1ccc(Cl)cc1Cl [Compound 10c, (2,4-Dichlorophenyl)methyl Amidinoisothiourea Hydrochloride]
proliferation (S-phase entry, BrdU incorporation) [1]: not inhibited

melting point: 183 to 185 °C
inhibition at 10 µM (Rb:Raf-1 binding; class symbol +, 10 μM, read-out: Inhibition at 10 μM or 20 μM): 25 to 50%
Structure (SMILES): Cl.N=C(N)NC(=N)SCc1ccc(Cl)cc1[N+](=O)[O-] [Compound 10d, (2-Nitro-4-chlorophenyl)methyl Amidinoisothiourea Hydrochloride]

inhibition at 20 µM (Rb:Raf-1 binding; [5]): 22%
inhibition at 10 µM (Rb:Raf-1 binding; [6]): 6%
Structure (SMILES): N#Cc1ccc(CSC(=N)NC(=N)N)cc1 [Compound 10e, (4-Cyanophenyl)methyl Amidinoisothiourea Hydrochloride]

inhibition at 20 µM (Rb:Raf-1 binding; [4]): 50 to 100%
Structure (SMILES): N=C(N)NC(=N)SCc1cc(Cl)ccc1Cl [Compound 10f, (2,5-Dichlorophenyl)methyl Amidinoisothiourea Hydrochloride]

inhibition at 20 µM (Rb:Raf-1 binding; [4]): 50 to 100%
Structure (SMILES): N=C(N)NC(=N)SCc1c(F)cccc1Cl [Compound 10g, (2-Chloro-6-fluorophenyl)methyl Amidinoisothiourea Hydrochloride]

inhibition at 20 µM (Rb:Raf-1 binding; [4]): 50 to 100%
Structure (SMILES): N=C(N)NC(=N)SCc1cc2c(cc1Cl)OCO2 [Compound 10h, (6-Chlorobenzo[d][1,3-dioxol-5-yl)methyl Amidinoisothiourea Hydrochloride]

inhibition at 20 µM (Rb:Raf-1 binding; [5]): 42%
inhibition at 10 µM (Rb:Raf-1 binding; [6]): 6%
Structure (SMILES): N=C(N)NC(=N)SCc1ccc(Cl)c(F)c1 [Compound 10i, (4-Chloro-3-fluorophenyl)methyl Amidinoisothiourea Hydrochloride]

inhibition at 20 µM (Rb:Raf-1 binding; [4]): 50 to 100%
Structure (SMILES): N=C(N)NC(=N)SCc1c(F)cccc1F [Compound 10j, (2,6-Difluorophenyl)methyl Amidinoisothiourea Hydrochloride]

melting point: 175 to 177 °C
inhibition at 10 µM (Rb:Raf-1 binding; read-out: Inhibition at 10 μM): 50 to 100%
Structure (SMILES): Cl.N=C(N)NC(=N)SCc1ccc2ccccc2c1 [Compound 11a, (2-Naphthyl)methyl Amidinoisothiourea hydrochloride]

melting point: 160 to 162 °C
inhibition at 10 µM (Rb:Raf-1 binding; read-out: Inhibition at 10 μM): 50 to 100%
Structure (SMILES): Cl.N=C(N)NC(=N)SCc1ccc2ccccc2c1Br [Compound 11b, 2-(1-Bromonaphthyl)methyl amidinoisothiourea hydrochloride]
